From ChEMBL document CHEMBL1132969, “Design, synthesis, and enzymatic evaluation of multisubstrate analogue inhibitors of Escherichia coli thymidine phosphorylase” (J Med Chem, 2000)

Key:
[1] = target: Thymidine phosphorylase (Escherichia coli K-12) (UniProt P07650); test: Inhibition of Escherichia coli Thymidine Phosphorylase at a concentration of 1000 uM after 20 minutes
[2] = target: Thymidine phosphorylase (Escherichia coli K-12) (UniProt P07650); test: Inhibition of Escherichia coli Thymidine Phosphorylase at a concentration of 1000 uM after 60 minutes
[3] = target: Thymidine phosphorylase (Escherichia coli K-12) (UniProt P07650); test: Inhibition of Escherichia coli Thymidine Phosphorylase at a concentration of 1000 uM after 40 minutes
[4] = target: Thymidine phosphorylase (Escherichia coli) (UniProt P07650); test: Inhibition of Escherichia coli TPase at a concentration of 500 uM after 20 minutes
[5] = target: Thymidine phosphorylase (Escherichia coli) (UniProt P07650); test: Inhibition of Escherichia coli TPase at a concentration of 500 uM after 40 minutes
[6] = target: Thymidine phosphorylase (Escherichia coli) (UniProt P07650); test: Inhibition of Escherichia coli TPase at a concentration of 500 uM after 60 minutes

Thymidine phosphorylase (Escherichia coli), sequence (P07650 whole entry, looked up): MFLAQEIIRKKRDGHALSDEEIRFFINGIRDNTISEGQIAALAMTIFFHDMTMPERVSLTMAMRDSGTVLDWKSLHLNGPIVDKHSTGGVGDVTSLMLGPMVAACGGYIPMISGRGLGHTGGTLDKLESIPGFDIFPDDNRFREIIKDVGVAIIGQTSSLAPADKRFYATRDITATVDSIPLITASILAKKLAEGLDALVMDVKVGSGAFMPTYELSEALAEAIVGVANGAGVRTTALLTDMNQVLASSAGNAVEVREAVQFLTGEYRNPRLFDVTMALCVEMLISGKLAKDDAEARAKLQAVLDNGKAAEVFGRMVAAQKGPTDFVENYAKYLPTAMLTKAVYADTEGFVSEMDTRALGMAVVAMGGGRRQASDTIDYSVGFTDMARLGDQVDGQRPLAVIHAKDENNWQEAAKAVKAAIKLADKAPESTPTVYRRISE
Thymidine phosphorylase (Escherichia coli K-12), sequence (P07650 whole entry, looked up): as above

| SMILES | inhibition [1] [%] | inhibition [2] [%] | inhibition [3] [%] | inhibition [4] [%] | inhibition [5] [%] | inhibition [6] [%] |
| --- | --- | --- | --- | --- | --- | --- |
| Cc1cn(CC(O)C(O)COCP(=O)(O)O)c(=O)[nH]c1=O (stereo not given) | 0 | 0 | 0 |  |  |  |
| Cc1cn(C/C=C\COCOCP(=O)(OC(C)C)OC(C)C)c(=O)[nH]c1=O | 0 | 0 | 0 |  |  |  |
| Cc1cn(CC(O)C(O)COCOCP(=O)(O)O)c(=O)[nH]c1=O (stereo not given) | 0 | 0 | 0 |  |  |  |
| Cc1cn(CCCCCCP(=O)(O)O)c(=O)[nH]c1=O | 11 | 2 | 5 |  |  |  |
| CCOP(=O)(CCCCCCCCn1cc(C)c(=O)[nH]c1=O)OCC | 0 | 0 | 0 |  |  |  |
| Cc1cn(C/C=C\COCOCP(=O)(O)O)c(=O)[nH]c1=O | 34 | 17 | 22 |  |  |  |
| Cc1cn(C/C=C\COCP(=O)(OC(C)C)OC(C)C)c(=O)[nH]c1=O | 0 | 0 | 0 |  |  |  |
| Cc1cn(CC(O)C(O)COCOCP(=O)(OC(C)C)OC(C)C)c(=O)[nH]c1=O (stereo not given) | 0 | 0 | 0 |  |  |  |
| Cc1cn(CCCCOCOCP(=O)(OC(C)C)OC(C)C)c(=O)[nH]c1=O | 0 | 0 | 0 |  |  |  |
| CCOP(=O)(CCCCCCCCn1c(=O)[nH]c(=O)c2cc[nH]c21)OCC |  |  |  | 43 | 37 | 27 |
| CCOP(=O)(CCCCCCCCCn1cc(C)c(=O)[nH]c1=O)OCC | 4 | 2 | 3 |  |  |  |
| Cc1cn(CC(O)C(O)COCP(=O)(OC(C)C)OC(C)C)c(=O)[nH]c1=O (stereo not given) | 0 | 0 | 0 |  |  |  |
| O=c1[nH]c(=O)n(CCCCCCCCP(=O)(O)O)c2[nH]ccc12 | 97 | 94 | 96 |  |  |  |
| Cc1cn(COC/C=C\COCP(=O)(O)O)c(=O)[nH]c1=O | 0 | 0 | 0 |  |  |  |
| Cc1cn(CCCCCCCCP(=O)(O)O)c(=O)[nH]c1=O | 75 | 61 | 68 |  |  |  |

More lines, now with the values ahead:

| inhibition [1] [%] | inhibition [2] [%] | inhibition [3] [%] | inhibition [4] [%] | inhibition [5] [%] | inhibition [6] [%] | SMILES |
| --- | --- | --- | --- | --- | --- | --- |
| 0 | 0 | 0 |  |  |  | Cc1cn(C/C=C\COCP(=O)(O)O)c(=O)[nH]c1=O |
| 0 | 0 | 0 |  |  |  | Cc1cn(CCCCOCOCP(=O)(O)O)c(=O)[nH]c1=O |
| 0 | 0 | 0 |  |  |  | Cc1cn(CCCCOCP(=O)(OC(C)C)OC(C)C)c(=O)[nH]c1=O |
| 27 | 12 | 17 |  |  |  | Cc1cn(CCCCOCP(=O)(O)O)c(=O)[nH]c1=O |
| 81 | 70 | 75 |  |  |  | Cc1cn(CCCCCCCCCP(=O)(O)O)c(=O)[nH]c1=O |
| 0 | 0 | 0 |  |  |  | CCOP(=O)(CCCCCCCn1cc(C)c(=O)[nH]c1=O)OCC |
| 94 | 89 | 91 |  |  |  | Nc1c(Br)c(=O)[nH]c(=O)n1CCCCCCCCP(=O)(O)O |
| 0 | 0 | 0 |  |  |  | Cc1cn(CCCCCCCCP(=O)(OC(C)C)OC(C)C)c(=O)[nH]c1=O |
| 21 | 10 | 16 |  |  |  | CCOP(=O)(CCCCCCCCn1c(N)c(Br)c(=O)[nH]c1=O)OCC |
| 73 | 55 | 63 |  |  |  | Cc1cn(CCCCCCCP(=O)(O)O)c(=O)[nH]c1=O |
